Source: US20260138990A1, “TRICYCLIC FUSED IMIDAZOLE COMPOUNDS AS CD38 MODULATORS AND USES THEREOF” (AEOVIAN PHARMACEUTICALS, INC., priority 2023, published 2026)

How the values were obtained:
[1] = molecular target: T1, mouse CD38 (Mus musculus, UniProt P56528); test: NAD+ cyclase activity assay with mouse recombinant CD38 protein (ε-NAD fluorescence); type: biochemical; details: 0.6 nM mouse CD38, substrate ε-NAD, 30 min preincubation, fluorescence 300/410 nm
T1 construct: purchased Bio-Techne GmbH 4947-AC
T1 sequence (P56528 1-304): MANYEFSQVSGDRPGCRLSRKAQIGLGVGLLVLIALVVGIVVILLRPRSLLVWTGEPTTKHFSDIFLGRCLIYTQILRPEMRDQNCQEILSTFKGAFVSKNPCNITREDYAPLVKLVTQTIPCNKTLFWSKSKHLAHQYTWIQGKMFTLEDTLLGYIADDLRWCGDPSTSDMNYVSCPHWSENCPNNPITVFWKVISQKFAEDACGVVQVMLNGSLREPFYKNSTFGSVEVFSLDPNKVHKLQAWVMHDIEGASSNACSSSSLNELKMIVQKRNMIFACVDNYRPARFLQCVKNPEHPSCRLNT
Procedure, shortened: (§1)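 Twelve-point threefold compound dilutions were given 30 min at room temperature with 0.6 nM mouse or 1.9 nM human CD38 before […] ε-NAD was added (pH 7.5 HEPES/sucrose/Tween buffer). The rate came from the linear-phase slope of ex 300/em 410 nm fluorescence against vehicle and no-CD38 controls.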

[2] = molecular target: T2, human CD38 (Homo sapiens, UniProt P28907); test: NAD+ cyclase activity assay with human recombinant CD38 protein (ε-NAD fluorescence); type: biochemical; details: 1.9 nM human CD38, substrate ε-NAD, 30 min preincubation, fluorescence 300/410 nm
T2 construct: purchased Bio-Techne GmbH AVI2404
T2 sequence (P28907 1-300): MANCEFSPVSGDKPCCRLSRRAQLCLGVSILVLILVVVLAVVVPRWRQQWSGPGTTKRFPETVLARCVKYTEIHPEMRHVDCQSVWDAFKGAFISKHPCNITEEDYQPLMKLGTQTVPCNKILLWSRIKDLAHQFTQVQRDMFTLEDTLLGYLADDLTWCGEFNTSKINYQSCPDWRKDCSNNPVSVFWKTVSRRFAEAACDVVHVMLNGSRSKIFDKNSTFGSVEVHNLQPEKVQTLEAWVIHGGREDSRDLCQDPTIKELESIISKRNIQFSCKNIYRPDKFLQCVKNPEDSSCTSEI
Procedure, shortened: as §1

Row | Compound | IC50 [1] [nM] | IC50 [2] [nM]
1 | O=C(N[C@@H]1CCCC(F)(F)C1)c1ccc2c(c1)-c1cncn1CCO2 [Compound 116A, (R)—N-(3,3-Difluorocyclohexyl)-5,6-dihydrobenzo[f]imidazo[1,5-d][1,4]oxazepine-10-carboxamide] | < 1 | < 30
2 | O=C(N[C@H]1CCCC(F)(F)C1)c1ccc2c(c1)-c1cncn1CCO2 [Compound 117A, (S)—N-(3,3-Difluorocyclohexyl)-5,6-dihydrobenzo[f]imidazo[1,5-d][1,4]oxazepine-10-carboxamide] | 1 to 10 | 30 to 100
3 | O=C(N[C@H]1CC[C@@H](OCC2(C(F)(F)F)CC2)CC1)c1ccc2c(c1)-c1cncn1CCO2 [Compound 118A, N-((1s,4s)-4-((1-(Trifluoromethyl)cyclopropyl)methoxy)cyclohexyl)-5,6-dihydrobenzo[f]imidazo[1,5-d][1,4]oxazepine-10-carboxamide] | > 100 | > 1000
4 | O=C(NC1CCC(CC(F)(F)F)CC1)c1ccc2c(c1)-c1cncn1CCO2 (centres unmarked) [Compound 119A, N-(4-(2,2,2-Trifluoroethyl)cyclohexyl)-5,6-dihydrobenzo[f]imidazo[1,5-d][1,4]oxazepine-10-carboxamide] | 1 to 10 | < 30
5 | CC(C)(CO[C@H]1CC[C@H](NC(=O)c2ccc3c(c2)-c2cncn2CCO3)CC1)C(F)(F)F [Compound 120A, N-((1r,4r)-4-(3,3,3-Trifluoro-2,2-dimethylpropoxy)cyclohexyl)-5,6-dihydrobenzo[f]imidazo[1,5-d][1,4]oxazepine-10-carboxamide] | 1 to 10 | < 30
6 | CC(C)(CO[C@H]1CC[C@@H](NC(=O)c2ccc3c(c2)-c2cncn2CCO3)CC1)C(F)(F)F [Compound 121A, N-((1s,4s)-4-(3,3,3-Trifluoro-2,2-dimethylpropoxy)cyclohexyl)-5,6-dihydrobenzo[f]imidazo[1,5-d][1,4]oxazepine-10-carboxamide] | > 100 | > 1000
7 | O=C(N[C@H]1CC[C@H](OCC(F)(F)F)CC1)c1ccc2c(c1)-c1cncn1CCO2 [Compound 122A, N-((1r,4r)-4-(2,2,2-Trifluoroethoxy)cyclohexyl)-5,6-dihydrobenzo[f]imidazo[1,5-d][1,4]oxazepine-10-carboxamide] | 1 to 10 | < 30
8 | O=C(N[C@H]1CC[C@@H](OCC(F)(F)F)CC1)c1ccc2c(c1)-c1cncn1CCO2 [Compound 123A, N-((1s,4s)-4-(2,2,2-Trifluoroethoxy)cyclohexyl)-5,6-dihydrobenzo[f]imidazo[1,5-d][1,4]oxazepine-10-carboxamide] | 10 to 100 | 100 to 1000
9 | O=C(Nc1cnc(N2CC(C(F)F)C2)nc1)c1ccc2c(c1)-c1cncn1CCO2 [Compound 124A, N-(2-(3-(Difluoromethyl)azetidin-1-yl)pyrimidin-5-yl)-5,6-dihydrobenzo[f]imidazo[1,5-d][1,4]oxazepine-10-carboxamide] | 10 to 100 | < 30
10 | CCC1CCC(NC(=O)c2ccc3c(c2)-c2cncn2CCO3)CC1 (centres unmarked) [Compound 125A, N-(4-Ethylcyclohexyl)-5,6-dihydrobenzo[f]imidazo[1,5-d][1,4]oxazepine-10-carboxamide] | 1 to 10 | < 30
11 | CC(O)C1CCC(NC(=O)c2ccc3c(c2)-c2cncn2CCO3)CC1 (centres unmarked) [Compound 126A, N-(4-(1-Hydroxyethyl)cyclohexyl)-5,6-dihydrobenzo[f]imidazo[1,5-d][1,4]oxazepine-10-carboxamide] | 1 to 10 | 30 to 100
12 | COC(C)(C)CO[C@H]1CC[C@H](NC(=O)c2ccc3c(c2)-c2cncn2CCO3)CC1 [Compound 127A, N-((1r,4r)-4-(2-Methoxy-2-methylpropoxy)cyclohexyl)-5,6-dihydrobenzo[f]imidazo[1,5-d][1,4]oxazepine-10-carboxamide] | 1 to 10 | < 30
13 | COC(C)(C)CO[C@H]1CC[C@@H](NC(=O)c2ccc3c(c2)-c2cncn2CCO3)CC1 [Compound 128A, N-((1s,4s)-4-(2-Methoxy-2-methylpropoxy)cyclohexyl)-5,6-dihydrobenzo[f]imidazo[1,5-d][1,4]oxazepine-10-carboxamide] | 10 to 100 | 100 to 1000
14 | O=C(Nc1cnc2c(c1)OCCO2)c1cc(Cl)c2c(c1)-c1cncn1CCO2 [Compound 129A, 8-Chloro-N-(2,3-dihydro-[1,4]dioxino[2,3-b]pyridin-7-yl)-5,6-dihydrobenzo[f]imidazo[1,5-d][1,4]oxazepine-10-carboxamide] | 1 to 10 | < 30
15 | O=C(N[C@@H]1CCCOC1)c1cc(F)c2c(c1)-c1cncn1CCO2 [Compound 130A, (R)-8-Fluoro-N-(tetrahydro-2H-pyran-3-yl)-5,6-dihydrobenzo[f]imidazo[1,5-d][1,4]oxazepine-10-carboxamide] | 1 to 10 | 30 to 100
16 | CCC(O)(CN[C@H]1CC[C@H](NC(=O)c2ccc3c(c2)-c2cncn2CCO3)CC1)C(F)(F)F (some centres unmarked) [Compound 131A, N-((1r,4r)-4-((2-Hydroxy-2-(trifluoromethyl)butyl)amino)cyclohexyl)-5,6-dihydrobenzo[f]imidazo[1,5-d][1,4]oxazepine-10-carboxamide] | < 1 | < 30
17 | O=C(N[C@@H]1CCS(=O)(=O)C1)c1cc(F)c2c(c1)-c1cncn1CCO2 [Compound 132A, (R)—N-(1,1-Dioxidotetrahydrothiophen-3-yl)-8-fluoro-5,6-dihydrobenzo[f]imidazo[1,5-d][1,4]oxazepine-10-carboxamide] | 1 to 10 | < 30
18 | CC(C1CCC(NC(=O)c2ccc3c(c2)-c2cncn2CCO3)CC1)C(F)(F)F (centres unmarked) [Compound 133A, N-(4-(1,1,1-Trifluoropropan-2-yl)cyclohexyl)-5,6-dihydrobenzo[f]imidazo[1,5-d][1,4]oxazepine-10-carboxamide] | 1 to 10 | 30 to 100
19 | O=C(NC1CC(F)(F)C1)c1cc(Cl)c2c(c1)-c1cncn1CCO2 [Compound 134A, 8-Chloro-N-(3,3-difluorocyclobutyl)-5,6-dihydrobenzo[f]imidazo[1,5-d][1,4]oxazepine-10-carboxamide] | < 1 | < 30
20 | O=C(NC1CC(F)(F)C1)c1cc(F)c2c(c1)-c1cncn1CCO2 [Compound 135A, N-(3,3-Difluorocyclobutyl)-8-fluoro-5,6-dihydrobenzo[f]imidazo[1,5-d][1,4]oxazepine-10-carboxamide] | < 1 | < 30
21 | CC1(F)CC(NC(=O)c2ccc3c(c2)-c2cncn2CCO3)C1 (centres unmarked) [Compound 136A, N-(3-Fluoro-3-methylcyclobutyl)-5,6-dihydrobenzo[f]imidazo[1,5-d][1,4]oxazepine-10-carboxamide] | 1 to 10 | 30 to 100
22 | O=C(NC1CCC(F)(F)CC1)c1cc(Cl)c2c(c1)-c1cncn1CCO2 [Compound 137A, 8-Chloro-N-(4,4-difluorocyclohexyl)-5,6-dihydrobenzo[f]imidazo[1,5-d][1,4]oxazepine-10-carboxamide] | < 1 | < 30
23 | CC1(F)CC(NC(=O)c2cc(F)c3c(c2)-c2cncn2CCO3)C1 (centres unmarked) [Compound 138A, 8-Fluoro-N-(3-fluoro-3-methylcyclobutyl)-5,6-dihydrobenzo[f]imidazo[1,5-d][1,4]oxazepine-10-carboxamide] | 1 to 10 | < 30
24 | O=C(NC1CCC1(F)F)c1ccc2c(c1)-c1cncn1CCO2 (centres unmarked) [Compound 139A, N-(2,2-Difluorocyclobutyl)-5,6-dihydrobenzo[f]imidazo[1,5-d][1,4]oxazepine-10-carboxamide] | < 1 | < 30
25 | O=C(NC1CCC1(F)F)c1cc(F)c2c(c1)-c1cncn1CCO2 (centres unmarked) [Compound 140A, N-(2,2-Difluorocyclobutyl)-8-fluoro-5,6-dihydrobenzo[f]imidazo[1,5-d][1,4]oxazepine-10-carboxamide] | < 1 | < 30
26 | CC1(C)CC(NC(=O)c2ccc3c(c2)-c2cncn2CCO3)C1 [Compound 141A, N-(3,3-Dimethylcyclobutyl)-5,6-dihydrobenzo[f]imidazo[1,5-d][1,4]oxazepine-10-carboxamide] | 1 to 10 | < 30
27 | CC1(C)CC(NC(=O)c2cc(F)c3c(c2)-c2cncn2CCO3)C1 [Compound 143A, N-(3,3-Dimethylcyclobutyl)-8-fluoro-5,6-dihydrobenzo[f]imidazo[1,5-d][1,4]oxazepine-10-carboxamide] | < 1 | < 30
28 | COCC1COc2cc(NC(=O)c3ccc4c(c3)-c3cncn3CCO4)cnc2O1 (centres unmarked) [Compound 144A, N-(3-(Methoxymethyl)-2,3-dihydro-[1,4]dioxino[2,3-b]pyridin-7-yl)-5,6-dihydrobenzo[f]imidazo[1,5-d][1,4]oxazepine-10-carboxamide] | 1 to 10 | < 30
